Reference: ChEMBL document CHEMBL4321813, “Discovery of GSK3527497: A Candidate for the Inhibition of Transient Receptor Potential Vanilloid-4 (TRPV4)” (J Med Chem, 2019)
≈ marks a conversion by molar mass, not a printed value.

How the values were obtained:
[1] = Solubility of the compound in FaSSIF measured after 4 hrs; format: physicochemical
[2] = Unbound clearance in Sprague-Dawley rat at 1 mg/kg, iv administered as 30 mins infusion by HPLC-MS/MS analysis; format: ADME, organism-based; details: in vivo, 0.5 h
[3] = Volume of distribution at steady state in Sprague-Dawley rat at 1 mg/kg, iv administered as 30 mins infusion or 1 to 2 mg/kg, po by HPLC-MS/MS analysis; format: ADME, organism-based; details: in vivo, read-out: Vdss
[4] = Protein binding in rat plasma assessed as unbound fraction; format: ADME, cell-free
[5] = Unbound volume of distribution at steady state in Sprague-Dawley rat at 1 mg/kg, iv administered as 30 mins infusion or 1 to 2 mg/kg, po by HPLC-MS/MS analysis; format: ADME, organism-based; details: in vivo, 0.5 h
[6] = Clearance in Sprague-Dawley rat at 1 mg/kg, iv administered as 30 mins infusion by HPLC-MS/MS analysis; format: ADME, organism-based; details: in vivo
[7] = MRT in Sprague-Dawley rat at 1 mg/kg, iv administered as 30 mins infusion by HPLC-MS/MS analysis; format: ADME, organism-based; details: in vivo
[8] = Lipophilicity, log D of the compound at pH 7.4 by chromatographic method; format: physicochemical; details: buffer
[9] = Oral bioavailability in Sprague-Dawley rat at 1 to 2 mg/kg by HPLC-MS/MS analysis; format: ADME, organism-based; details: in vivo
[10] = target: T1, Transient receptor potential cation channel subfamily V member 4 (Homo sapiens, UniProt Q9HBA0); experiment: Antagonist activity at BacMam virus expressing human TRPV4 transduced in BHK/AC9 or HEK MSR2 cells assessed as inhibition of GSK634775-induced Ca2+ flux preincubated for 10 mins followed by agonist addition by Fluo-4 AM dye based FLIPR assay; format: cell-based
T1 sequence (Q9HBA0 whole entry): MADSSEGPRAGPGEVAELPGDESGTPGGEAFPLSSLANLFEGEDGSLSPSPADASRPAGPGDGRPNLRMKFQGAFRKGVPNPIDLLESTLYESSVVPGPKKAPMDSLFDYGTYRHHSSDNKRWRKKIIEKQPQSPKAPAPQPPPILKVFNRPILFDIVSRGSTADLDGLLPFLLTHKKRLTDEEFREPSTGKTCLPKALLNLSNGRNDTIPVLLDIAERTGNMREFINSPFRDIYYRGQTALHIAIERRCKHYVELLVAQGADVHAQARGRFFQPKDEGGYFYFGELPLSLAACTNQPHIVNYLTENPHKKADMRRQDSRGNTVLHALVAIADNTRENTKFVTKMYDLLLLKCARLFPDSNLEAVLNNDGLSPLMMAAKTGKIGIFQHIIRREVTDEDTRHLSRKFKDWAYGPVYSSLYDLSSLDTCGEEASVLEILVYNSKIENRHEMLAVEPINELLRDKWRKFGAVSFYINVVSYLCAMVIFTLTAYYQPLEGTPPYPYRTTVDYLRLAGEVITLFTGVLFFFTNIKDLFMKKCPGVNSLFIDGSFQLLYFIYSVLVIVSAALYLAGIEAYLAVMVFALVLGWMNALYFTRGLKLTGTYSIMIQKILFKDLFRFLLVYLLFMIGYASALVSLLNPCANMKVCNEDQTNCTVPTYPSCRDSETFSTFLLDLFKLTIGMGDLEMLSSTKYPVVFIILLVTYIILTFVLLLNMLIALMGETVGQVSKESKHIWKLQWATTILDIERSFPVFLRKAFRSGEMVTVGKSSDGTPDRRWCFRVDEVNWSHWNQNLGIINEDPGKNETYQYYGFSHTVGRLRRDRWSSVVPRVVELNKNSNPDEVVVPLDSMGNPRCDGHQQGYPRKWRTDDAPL

[11] = Oral bioavailability in Sprague-Dawley rat at 100 mg/kg using amorphous spray dried dispersion sample by HPLC-MS/MS analysis; format: ADME, organism-based; details: in vivo
Rattus norvegicus = experiment: Ratio of dose normalized AUC in Sprague-Dawley rat at 100 mg/kg, po using amorphous spray dried dispersion sample to dose normalized AUC in Sprague-Dawley rat at 100 mg/kg, po using crystalline solid form of sample; format: ADME, organism-based; details: in vivo
[12] = Oral bioavailability in Sprague-Dawley rat at 100 mg/kg using crystalline solid form of sample by HPLC-MS/MS analysis; format: ADME, organism-based; details: in vivo
[13] = Ratio of Cmax to Cmin in human; format: ADME
[14] = Dose normalized AUC in Sprague-Dawley rat at 100 mg/kg, po using amorphous spray dried dispersion sample by HPLC-MS/MS analysis; format: ADME, organism-based; details: in vivo
[15] = Drug metabolism in rat hepatocytes assessed as GSH-mediated sulfonamide cleavage by measuring 2-amino-5-[[2-(carboxymethylamino)-1-[[2-cyano-4-(trifluoromethyl)phenyl]sulfanylmethyl]-2-oxo-ethyl]amino]-5-oxo-pentanoic acid formation by LC-MS/MS analysis; format: ADME, cell-based, Hepatocyte
[16] = Drug metabolism in rat hepatocytes assessed as oxidation of arene oxide metabolite by measuring 2-[(3R,4S)-4-(4-cyano-3-fluoro-phenoxy)-3-hydroxy-3-(hydroxymethyl)pyrrolidin-1-yl]sulfonyl-3,4-dihydroxy-5-(trifluoromethyl)benzonitrile formation by LC-MS/MS analysis; format: ADME, cell-based, Hepatocyte
[17] = Ratio of unbound clearance in Sprague-Dawley rat at 1 mg/kg, iv administered as 30 mins infusion to unbound clearance in dog; format: ADME, organism-based; details: in vivo, 0.5 h
[18] = Drug metabolism in rat hepatocytes assessed as rearomatization/conjugation by measuring metabolite formation by LC-MS/MS analysis; format: ADME, cell-based, Hepatocyte
[19] = Dose normalized AUC in Sprague-Dawley rat at 1 mg/kg, po by HPLC-MS/MS analysis; format: ADME, organism-based; details: in vivo
[20] = Dose normalized AUC in Sprague-Dawley rat at 100 mg/kg, po using crystalline solid form of sample by HPLC-MS/MS analysis; format: ADME, organism-based; details: in vivo
[21] = Oral bioavailability in Sprague-Dawley rat at 1 mg/kg by HPLC-MS/MS analysis; format: ADME, organism-based; details: in vivo
[22] = Volume of distribution at steady state in dog; format: ADME, Canis lupus familiaris; details: in vivo, read-out: Vdss
[23] = Mean residence time in dog; format: ADME, Canis lupus familiaris; details: in vivo
[24] = Protein binding in dog plasma assessed as unbound fraction; format: ADME, cell-free, Canis lupus familiaris
[25] = Unbound clearance in dog; format: ADME, Canis lupus familiaris; details: in vivo
[26] = Oral bioavailability in dog; format: ADME, organism-based, Canis lupus familiaris; details: in vivo
[27] = Unbound volume of distribution at steady state in dog; format: ADME, Canis lupus familiaris; details: in vivo
[28] = Apparent permeability in dog MDCK cells; format: ADME, cell-based, Canis lupus familiaris
[29] = Clearance in dog; format: ADME, Canis lupus familiaris; details: in vivo
[30] = target: T1, Transient receptor potential cation channel subfamily V member 4; experiment: Antagonist activity at human TRPV4
[31] = Dose normalized AUC in Sprague-Dawley rat at 100 mg/kg, po by HPLC-MS/MS analysis; format: ADME, organism-based; details: in vivo
Cytochrome P450 3A4 = Cytochrome P450 3A4 (Homo sapiens, UniProt P08684); experiment: Inhibition of CYP3A4 (unknown origin); format: ADME
Chain of Cytochrome P450 3A4 (P08684 whole entry): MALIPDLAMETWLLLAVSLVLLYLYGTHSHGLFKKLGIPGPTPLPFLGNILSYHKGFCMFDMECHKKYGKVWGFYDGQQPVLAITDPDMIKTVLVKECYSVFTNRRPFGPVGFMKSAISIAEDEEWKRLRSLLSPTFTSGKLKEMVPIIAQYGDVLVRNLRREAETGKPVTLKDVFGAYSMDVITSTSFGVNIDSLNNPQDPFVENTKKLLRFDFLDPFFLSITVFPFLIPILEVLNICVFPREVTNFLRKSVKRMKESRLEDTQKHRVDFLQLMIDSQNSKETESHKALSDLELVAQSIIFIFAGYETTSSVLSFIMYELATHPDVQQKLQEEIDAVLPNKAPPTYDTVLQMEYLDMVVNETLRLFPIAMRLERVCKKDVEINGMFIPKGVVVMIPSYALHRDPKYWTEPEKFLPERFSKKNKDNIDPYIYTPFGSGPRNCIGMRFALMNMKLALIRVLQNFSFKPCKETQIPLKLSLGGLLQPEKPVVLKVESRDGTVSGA

[32] = target: Voltage-gated inwardly rectifying potassium channel KCNH2 (Homo sapiens, UniProt Q12809); experiment: Inhibition of human ERG by electrophysiology
Chain of Voltage-gated inwardly rectifying potassium channel KCNH2 (Q12809 whole entry): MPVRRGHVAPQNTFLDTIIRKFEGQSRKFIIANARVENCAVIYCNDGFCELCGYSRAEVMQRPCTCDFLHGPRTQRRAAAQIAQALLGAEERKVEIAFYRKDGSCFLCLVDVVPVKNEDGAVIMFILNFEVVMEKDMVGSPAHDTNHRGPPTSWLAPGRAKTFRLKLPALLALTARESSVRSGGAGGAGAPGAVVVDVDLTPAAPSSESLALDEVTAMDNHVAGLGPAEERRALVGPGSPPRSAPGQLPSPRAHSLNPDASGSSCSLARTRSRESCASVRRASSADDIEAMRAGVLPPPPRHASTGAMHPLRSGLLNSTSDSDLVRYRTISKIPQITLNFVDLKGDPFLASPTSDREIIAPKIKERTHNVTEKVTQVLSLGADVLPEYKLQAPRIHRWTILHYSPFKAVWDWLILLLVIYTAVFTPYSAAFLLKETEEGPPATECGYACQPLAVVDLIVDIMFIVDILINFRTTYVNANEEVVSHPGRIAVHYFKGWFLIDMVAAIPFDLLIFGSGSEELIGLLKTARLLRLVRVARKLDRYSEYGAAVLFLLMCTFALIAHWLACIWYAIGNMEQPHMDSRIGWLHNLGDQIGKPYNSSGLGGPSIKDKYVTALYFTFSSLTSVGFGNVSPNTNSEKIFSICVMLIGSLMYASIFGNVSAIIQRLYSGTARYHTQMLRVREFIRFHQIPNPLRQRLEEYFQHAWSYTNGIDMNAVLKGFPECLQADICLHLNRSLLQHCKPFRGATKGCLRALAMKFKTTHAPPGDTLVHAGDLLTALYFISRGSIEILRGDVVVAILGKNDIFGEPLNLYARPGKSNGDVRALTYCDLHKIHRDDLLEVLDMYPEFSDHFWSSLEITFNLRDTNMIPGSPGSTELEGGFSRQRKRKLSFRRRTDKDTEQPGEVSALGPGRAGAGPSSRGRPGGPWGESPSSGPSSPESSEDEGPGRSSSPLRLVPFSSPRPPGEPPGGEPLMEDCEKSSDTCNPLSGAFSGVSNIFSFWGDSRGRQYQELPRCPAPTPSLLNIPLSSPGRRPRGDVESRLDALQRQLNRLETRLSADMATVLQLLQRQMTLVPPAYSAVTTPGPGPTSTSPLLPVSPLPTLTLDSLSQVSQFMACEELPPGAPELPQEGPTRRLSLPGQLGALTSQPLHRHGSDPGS

[33] = Dose normalized AUC in Sprague-Dawley rat at 2 mg/kg, po by HPLC-MS/MS analysis; format: ADME, organism-based; details: in vivo
[34] = Oral bioavailability in Sprague-Dawley rat at 100 mg/kg by HPLC-MS/MS analysis; format: ADME, organism-based; details: in vivo
[35] = Unbound AUC in human; format: ADME

| Compound | solubility at 4 h [1] [µg/mL] | CL free [2] [mL/min/kg] | Vd [3] [L/kg] | fraction unbound [4] | Vduss [5] [L/kg] | clearance [6] [mL/min/kg] | MRT [7] [h] | chromatographic logD [8] | bioavailability [9] [%] | IC50 [10] [nM] | other results |
| --- | --- | --- | --- | --- | --- | --- | --- | --- | --- | --- | --- |
| N#Cc1ccc(S(=O)(=O)[C@H]2CN(S(=O)(=O)c3ccc(Cl)cn3)C[C@@]2(O)CO)cc1 | > 1000 | – | – | – | – | – | – | 3.1 | – | 3800 | – |
| N#Cc1ccc(O[C@H]2CN(S(=O)(=O)c3ccc(Cl)cn3)C[C@@]2(O)CO)cc1F | 26 (≈ 60.8 µM) | 170 | 2.2 | 0.18 | 12 | 30 | 1.2 | 3.4 | 100 | 34 | bioavailability [21]: 100%; bioavailability [11]: 79%; Vd [22]: 1.9 L/kg; bioavailability ([12]; Sprague-Dawley): 7%; MRT [23]: 7.8 h; AUC/dose [14]: 0.5 kg·h/L; fraction unbound [24]: 0.34; CL free [25]: 12 mL/min/kg; bioavailability [26]: 100%; Ratio [17]: 14; Vduss [27]: 5.5 L/kg; AUC/dose [19]: 0.63 kg·h/L; Papp [28]: 0.22 ×10⁻⁶ cm/s; AUC/dose [20]: 0.043 kg·h/L; clearance [29]: 4.1 mL/min/kg |
| CC(C)Nc1nc2c(C(=O)N(C)C)c(Cl)c(Cl)cc2n1C1CCN(c2ccc(C(C)(C)C#N)cc2)CC1 | – | – | – | – | – | – | – | – | – | – | IC50 [30]: 32 nM |
| N#Cc1ccc(O[C@H]2CN(S(=O)(=O)c3ccc(Cl)cn3)C[C@@]2(O)CN)cc1F | > 1000 | 320 | 6.7 | 0.14 | 47 | 45 | 2.5 | 2.5 | 26 | 12 | Vd [22]: 5.9 L/kg; AUC/dose [31]: 0.31 kg·h/L; MRT [23]: 17 h; IC50 (Cytochrome P450 3A4): 12 µM; IC50 [32]: 20 µM; fraction unbound [24]: 0.32; CL free [25]: 18 mL/min/kg; bioavailability [26]: 84%; Ratio [17]: 18; AUC/dose [33]: 0.092 kg·h/L; Vduss [27]: 18 L/kg; Papp [28]: 0.08 ×10⁻⁶ cm/s; clearance [29]: 5.9 mL/min/kg; bioavailability [34]: 87% |
| N#Cc1ccc(O[C@H]2CN(S(=O)(=O)c3ccc(Cl)cc3)C[C@@]2(O)CO)cc1F | 44 (≈ 103 µM) | 1540 | 6 | 0.035 | 170 | 54 | 1.9 | 4.1 | 83 | 53 | – |
| N#Cc1ccc(O[C@H]2CN(S(=O)(=O)c3ccc(Cl)cc3Cl)C[C@@]2(O)CO)cc1F | 19 (≈ 41.2 µM) | – | 3.2 | – | 54 | – | – | – | – | – | fAUC [35]: 0.24 µg·h/mL; Ratio [13]: 15 |
| N#Cc1ccc(O[C@H]2CN(S(=O)(=O)c3ccc(C(F)(F)F)nc3)C[C@@]2(O)CO)cc1F | 98 (≈ 212 µM) | 210 | 4.1 | 0.147 | 28 | 31 | 2.3 | 4.2 | 100 | 175 | Ratio [17]: 13 |

More lines, main results first:

| solubility at 4 h [1] [µg/mL] | CL free [2] [mL/min/kg] | Vd [3] [L/kg] | fraction unbound [4] | Vduss [5] [L/kg] | clearance [6] [mL/min/kg] | MRT [7] [h] | chromatographic logD [8] | bioavailability [9] [%] | IC50 [10] [nM] | Compound | other results |
| --- | --- | --- | --- | --- | --- | --- | --- | --- | --- | --- | --- |
| 88 (≈ 191 µM) | 1350 | 13 | 0.04 | 330 | 54 | 4.8 | 4.9 | 100 | 33 | N#Cc1ccc(O[C@H]2CN(S(=O)(=O)c3ccc(Cl)cc3Cl)CC2(O)CO)cc1F (single isomer, unassigned) | – |
| 25 (≈ 51.5 µM) | – | 3.6 | – | 73 | – | – | – | – | – | N#Cc1ccc(O[C@H]2CN(S(=O)(=O)c3ccc(C(F)(F)F)cc3C#N)C[C@@]2(O)CO)cc1F | bioavailability [11]: 18%; Ratio AUC (Rattus norvegicus): 18; F [12]: 1%; Ratio [13]: 30; AUC/dose [14]: 0.038 kg·h/L; Drug metabolism [15]: Metabolite_Detected; Drug metabolism [16]: Metabolite_Detected; Ratio [17]: 22; Drug metabolism [18]: Metabolite_Detected; AUC/dose [19]: 0.148 kg·h/L; AUC/dose [20]: 0.0021 kg·h/L |
| 5 (≈ 10.9 µM) | 1500 | 5.9 | 0.033 | 180 | 50 | 2 | 4.5 | 100 | 100 | N#Cc1ccc(O[C@H]2CN(S(=O)(=O)c3ccc(C(F)(F)F)cc3)C[C@@]2(O)CO)cc1F | – |
| 270 (≈ 549 µM) | 925 | – | 0.027 | 85 | – | – | 4.5 | 100 | 8 | N#Cc1ccc(S(=O)(=O)[C@H]2CN(S(=O)(=O)c3ccc(Cl)cc3Cl)C[C@@]2(O)CO)cc1 | – |
| 130 (≈ 304 µM) | 150 | – | – | – | – | 3.3 | 3.5 | – | 190 | N#Cc1ccc(O[C@H]2CN(S(=O)(=O)c3ccc(Cl)cn3)C[C@]2(O)CO)cc1F | – |
| 78 (≈ 169 µM) | 1100 | 7.7 | 0.036 | 210 | 40 | 3.2 | 4 | 24 | 3.5 | N#Cc1ccc(O[C@H]2CN(S(=O)(=O)c3ccc(Cl)cc3Cl)C[C@@]2(O)CN)cc1F (racemic) | fAUC [35]: 0.17 µg·h/mL; IC50 (Cytochrome P450 3A4): 1.6 µM |
| 20 (≈ 47.9 µM) | 200 | 0.9 | 0.197 | 4.6 | 39 | 0.4 | 3.4 | 32 | 3.8 | N#Cc1ccc(O[C@H]2CN(S(=O)(=O)c3ccccc3C#N)C[C@@]2(O)CO)cc1F | – |
